Data as given in patent publication US20070112068A1, “Nitrile compound and its use in pest control” (priority 2003, published 2007).

What was measured:
Type in all cases: in vivo
Blattalla germanica = assay: Experimental Example 3: treated filter paper with sucrose bait, German cockroach; details: 500 ppm, 0.7 ml on filter paper; two male imagoes; after 6 days
Protocol: A filter paper having a diameter of 5.5 cm was spread on the bottom of a polyethylene cup having a diameter of 5.5 cm and 0.7 ml of the experimental pesticidal solution was added dropwise onto the filter paper. As a bait 30 mg of sucrose was uniformly placed on the filter paper. Into the polyethylene cup, two male Blattalla germanica imagoes were released and the cup was sealed with a lid. After 6 days, the number of surviving Blattalla germanica was examined and the death rate of the pest was calculated.

Blattella germanica [1] = assay: Experimental Example 14: topical application, Blattella germanica; details: 1 μl of 1% (w/v) acetone solution onto sternum of thorax of female imagoes; after 7 days
Protocol: 1% (w/v) solutions of the present compounds (4), (20), (22), (23), (24), (29), (30), (31), (35), (36), (37), (38), (46), (53), (54), (56), (57), (59), (61), (66), (67), (68), (69), (70), (71), (79), (81), (83), (84), (89), and (90) in acetone were prepared. Onto the sternum of the thorax of female imagoes of Blattella germanica, 1 μl of the acetone solution was added dropwise. The imagoes were transferred to a plastic cup having a diameter of about 9 cm and a height of about 4.5 cm and left together with feed and water at 25° C. After 7 days, the number of surviving Blattella germanica was examined and the death rate of the pest was calculated. 10 imagoes of Blattella germanica were put in a cup and three replicate experiments were performed.

Blattella germanica [2] = assay: Experimental Example 15: treated filter paper in paper box, Blattella germanica; details: 0.1 ml of 2.5% (w/v) acetone solution on filter paper in paper box; after 7 days
Protocol: (§1) 2.5% (w/v) solutions of the present compounds (23), (24) and (31) in acetone were prepared. 0.1 ml of the solution was added dropwise onto a filter paper with 2 cm×2 cm and then air-dried. This filter paper was attached to the center of the inside bottom of a paper box having 10 cm (width)×2 cm (height)×7 cm (depth) with a two-sided tape. One hole of 5 mm in width and 2 cm in height was made through one side of this box. This box was placed in a plastic vat with 25 cm×20 cm×8 cm in height and therein 10 females and 10 males of Blattella germanica were released. The inside wall of the plastic vat used in this experiment was coated with talc for preventing the escape of cockroaches. The plastic vat contained feed and water and left at 25° C. After 7 days, Blattella germanica was observed and the death rate of the pest was calculated. This experiment was repeated two times.

Periplaneta fuliginosa = assay: Experimental Example 16: treated filter paper in paper box, Periplaneta fuliginosa; details: 0.1 ml of 5% (w/v) acetone solution on filter paper in paper box; after 7 days
Protocol: as §1, with “5% (w/v)” for “2.5% (w/v)”, “of 2” for “of 5”, “therein 3” for “therein 10”, “and 3” for “and 10”, “of Periplaneta fuliginosa” for “of Blattella germanica”, “days, Periplaneta fuliginosa” for “days, Blattella germanica”

Compound | death rate of the pest (Blattalla germanica) [%] | death rate of the pest (Blattella germanica [1]) [%] | death rate of the pest (Blattella germanica [2]) [%] | death rate of the pest (Periplaneta fuliginosa) [%]
N#CC(C#N)(CCCCCl)CCC(F)(F)F [(3)] | 100 |  |  | 
N#CC(C#N)(CCC(F)(F)F)CC1CC1(Cl)Cl (stereo not shown) [(4)] | 100 | 100 |  | 
N#CC(C#N)(CCC(F)(F)F)CCC(F)(F)F [(5)] | 100 |  |  | 
CCCCCC(C#N)(C#N)CCC(F)(F)F [(9)] | 100 |  |  | 
CCCCCCC(C#N)(C#N)CCC(F)(F)F [(10)] | 100 |  |  | 
N#CC(C#N)(CCC(F)=C(F)F)CCC(F)(F)F [(17)] | 100 |  |  | 
N#CC(C#N)(CCC(F)(F)F)CC(F)(F)C(F)F [(20)] | 100 | 100 |  | 
N#CC(C#N)(CCC(F)(F)F)CC(F)(F)F [(21)] | 100 |  |  | 
N#CC(C#N)(CCC(F)(F)F)CC(F)(F)C(F)(F)F [(22)] | 100 | 100 |  | 
N#CC(C#N)(CCC(F)(F)F)CC(F)(F)C(F)C(F)(F)F (stereo not shown) [(23)] | 100 | 100 | 97.5 | 91.7
N#CC(C#N)(CCC(F)(F)F)CC(F)(F)C(F)(F)C(F)(F)F [(24)] | 100 | 100 | 100 | 100
N#CC(C#N)(CCF)CCC(F)(F)F [(25)] | 100 |  |  | 
C#CCC(C#N)(C#N)CCC(F)(F)F [(27)] | 100 |  |  | 
N#CC(C#N)(CCC(F)(F)F)CCC(F)(F)C(F)(F)F [(29)] | 100 | 100 |  | 
N#CC(C#N)(CCC(F)(F)F)CCC(F)(Cl)C(F)(F)Br (stereo not shown) [(30)] | 100 | 100 |  | 
N#CC(C#N)(CCC(F)(F)F)CC(F)(F)C(F)(F)C(F)(F)C(F)(F)C(F)(F)C(F)F [(32)] | 100 |  |  | 
N#CC(C#N)(CCC(F)(F)F)CCC(F)(F)C(F)(F)Br [(35)] | 100 | 100 |  | 
N#CC(C#N)(CCC(F)(F)F)CCC(F)(C(F)(F)F)C(F)(F)F [(36)] | 100 | 100 |  | 
N#CC(C#N)(CCC(F)(F)F)CCC(F)(F)C(F)(F)C(F)(F)F [(37)] | 100 | 100 |  | 

Compound | death rate of the pest (Blattalla germanica) [%] | death rate of the pest (Blattella germanica [1]) [%] | death rate of the pest (Blattella germanica [2]) [%] | death rate of the pest (Periplaneta fuliginosa) [%]
N#CC(C#N)(CCC(F)(F)F)CCC(F)(F)C(F)(F)C(F)(F)C(F)(F)F [(38)] | 100 | 100 |  | 
N#CC(C#N)(CCC(F)(Cl)C(F)(F)Br)CC(F)(F)C(F)C(F)(F)F (stereo not shown) [(46)] | 100 | 100 |  | 
C=CCC(C#N)(C#N)CC(F)(F)C(F)(F)C(F)(F)C(F)F [(47)] | 100 |  |  | 
N#CC(C#N)(CCCC(F)(F)F)CCC(F)(F)F [(48)] | 100 |  |  | 
N#CC(C#N)(CC(F)(F)C(F)F)CC(F)(F)C(F)F [(50)] | 100 |  |  | 
N#CC(C#N)(CBr)CCC(F)(F)F [(52)] | 100 |  |  | 
N#CC(C#N)(CCC(F)(F)F)CCC(F)(Cl)C(F)(F)Cl (stereo not shown) [(54)] | 100 | 100 |  | 
N#CC(C#N)(CCCCCF)CCC(F)(F)F [(55)] | 100 |  |  | 
N#CC(C#N)(CCC(F)(C(F)(F)F)C(F)(F)F)CCC(F)(C(F)(F)F)C(F)(F)F [(56)] | 100 | 100 |  | 
N#CC(C#N)(CC(Br)C(F)(F)F)CC(F)(F)C(F)(F)C(F)(F)C(F)F (stereo not shown) [(57)] |  | 100 |  | 
N#CC(C#N)(CCC(F)(F)F)CC(Cl)C(F)(F)F (stereo not shown) [(58)] | 100 |  |  | 
CC(F)(F)CCC(C#N)(C#N)CC(F)(F)C(F)(F)C(F)(F)C(F)F [(59)] | 100 | 100 |  | 
N#CC(C#N)(CCCCC(F)F)CCC(F)(F)F [(60)] | 100 |  |  | 
N#CC(C#N)(CC(F)(F)C(F)F)CC(F)(F)C(F)(F)C(F)(F)C(F)F [(61)] | 100 | 100 |  | 
CC(F)(F)CCC(C#N)(C#N)CCC(F)(F)F [(64)] | 100 |  |  | 
N#CC(C#N)(CCCC(F)(F)F)CC(F)(F)C(F)(F)C(F)(F)C(F)F [(66)] | 100 | 100 |  | 
N#CC(C#N)(CCC(F)(Cl)C(F)(F)Cl)CC(F)(F)C(F)(F)C(F)(F)C(F)F (stereo not shown) [(67)] | 100 | 100 |  | 
N#CC(C#N)(CCC(F)(F)C(F)(F)F)CC(F)(F)C(F)(F)C(F)(F)C(F)F [(68)] | 100 | 100 |  | 
N#CC(C#N)(CC(Cl)C(F)(F)F)CC(F)(F)C(F)(F)C(F)(F)C(F)F (stereo not shown) [(69)] | 100 | 100 |  | 

Compound | death rate of the pest (Blattalla germanica) [%] | death rate of the pest (Blattella germanica [1]) [%] | death rate of the pest (Blattella germanica [2]) [%] | death rate of the pest (Periplaneta fuliginosa) [%]
CCC(F)(F)CCC(C#N)(C#N)CCC(F)(F)F [(70)] |  | 100 |  | 
N#CC(C#N)(CCC(F)(F)C(F)(F)C(F)(F)F)CC(F)(F)C(F)(F)C(F)(F)C(F)F [(71)] | 100 | 100 |  | 
N#CC(C#N)(CC1CC1)CC(F)(F)C(F)(F)C(F)(F)C(F)F [(72)] | 100 |  |  | 
C=CCCC(C#N)(C#N)CC(F)(F)C(F)(F)C(F)(F)C(F)F [(73)] | 100 |  |  | 
N#CC(C#N)(CCCF)CC(F)(F)C(F)(F)C(F)(F)C(F)F [(74)] | 100 |  |  | 
N#CC(C#N)(CCC(F)=C(F)F)CC(F)(F)C(F)(F)C(F)(F)C(F)F [(75)] | 100 |  |  | 
CC(C)=CCC(C#N)(C#N)CC(F)(F)C(F)(F)C(F)(F)C(F)F [(78)] | 100 |  |  | 
N#CC(C#N)(CC(F)(F)C(F)(F)C(F)(F)F)CC(F)(F)C(F)(F)C(F)(F)C(F)F [(79)] | 100 | 100 |  | 
CCCCC(C#N)(C#N)CC(F)(F)C(F)(F)C(F)(F)C(F)F [(80)] | 100 |  |  | 
N#CC(C#N)(CC(F)(F)C(F)C(F)(F)F)CC(F)(F)C(F)(F)C(F)(F)C(F)F (stereo not shown) [(81)] | 100 | 100 |  | 
CCCC(C#N)(C#N)CC(F)(F)C(F)(F)C(F)(F)C(F)F [(82)] | 100 |  |  | 
N#CC(C#N)(CCC(F)(F)F)CC1CCC(F)(F)CC1 [(83)] | 100 | 100 |  | 
N#CC(C#N)(CCC1CCC(F)(F)C1)CCC(F)(F)F (stereo not shown) [(84)] |  | 100 |  | 
N#CC(C#N)(CCC(F)(F)F)C[C@H]1CCC[C@@H](C(F)F)C1 [(87)] | 100 |  |  | 
N#CC(C#N)(CCC(F)(F)F)C[C@H]1CCC[C@@H](CF)C1 [(88)] | 100 |  |  | 
N#CC(C#N)(CCCC(F)(F)C(F)(F)F)CCC(F)(F)F [(89)] | 100 | 100 |  | 
CC(F)(F)CCCC(C#N)(C#N)CCC(F)(F)F [(90)] |  | 100 |  | 
N#CC(C#N)(CC(F)(F)C(F)(F)F)CC(F)(F)C(F)(F)F [(93)] | 100 |  |  | 
